# From ChEMBL document CHEMBL5614416, “Discovery of novel thiophene[3,2-d]pyrimidine-based tubulin inhibitors with enhanced antitumor efficacy for combined use with anti-pd-l1 immunotherapy in melanoma” (Eur J Med Chem, 2024)
# Calls of active or inactive are those of the source. The calls are words filed in the database; no cut-off is given here.
# Tests used:
# B16-F10 [1] = experiment: Induction of apoptosis in mouse B16-F10 cells assessed as necrotic cells at 1 nM incubated for 12 hrs by Annexin V-FITC/PI staining based flow cytometry (reference value: 0.25 %); format: functional
# B16-F10 [2] = experiment: Induction of apoptosis in mouse B16-F10 cells assessed as viable cells at 2 nM incubated for 12 hrs by Annexin V-FITC/PI staining based flow cytometry (reference value: 93.6 %); format: functional; conditions: read-out: Activity
# HepG2 = experiment: Antiproliferative activity against human HepG2 cells incubated for 48 hrs by MTT assay; format: functional, cell-based; conditions: HepG2, 48 h
# B16-F10 [3] = experiment: Induction of apoptosis in mouse B16-F10 cells assessed as increase in Bax level upto 30 nM incubated for 24 hrs by Western blot analysis; format: functional, cell-based
# B16-F10 [4] = experiment: Induction of apoptosis in mouse B16-F10 cells assessed as late apoptotic cells at 0.5 nM incubated for 12 hrs by Annexin V-FITC/PI staining based flow cytometry (reference value: 2.39 %); format: functional
# B16-F10 [5] = experiment: Induction of cell cycle arrest in mouse B16-F10 cells assessed as accumulation of cells at G1 phase at 2 nM incubated for 12 hrs by flow cytometry (reference value: 52.0 %); format: functional
# B16-F10 [6] = experiment: Induction of apoptosis in mouse B16-F10 cells assessed as viable cells at 1 nM incubated for 12 hrs by Annexin V-FITC/PI staining based flow cytometry (reference value: 93.6 %); format: functional; conditions: read-out: Activity
# MCF7 [7] = experiment: Inhibition of cell migration in human MCF7 cells assessed as reduction in wound closure incubated for 24 hrs by wound healing assay; format: functional, cell-based
# [8] = Toxicity in C57 mouse xenografted with mouse B16-F10 cells assessed as MCHC level at 7 mg/kg, ip qd for 12 days by biochemical analysis (reference value: 324.000 to 683.000 g/L); format: organism-based; conditions: in vivo, 288 h, time 12 day
# B16-F10 [9] = experiment: Induction of cell cycle arrest in mouse B16-F10 cells assessed as accumulation of cells at G2 phase at 0.5 nM incubated for 12 hrs by flow cytometry (reference value: 13.6 %); format: functional
# MCF7 [10] = experiment: Induction of apoptosis in human MCF7 cells assessed as decrease in Bcl-2 level upto 30 nM incubated for 24 hrs by Western blot analysis; format: functional, cell-based
# B16-F10 [11] = experiment: Antitumor activity against mouse B16-F10 cells xenografted in C57 mouse assessed as suppression of tumor growth at 7 mg/kg, ip qd for 12 days; format: functional, organism-based; conditions: time 12.0 day
# [12] = Toxicity in C57 mouse xenografted with mouse B16-F10 cells assessed as WBC count at 7 mg/kg, ip qd for 12 days by biochemical analysis (reference value: 8.240 to 8.340 10^9/L); format: organism-based; conditions: in vivo, 288 h, time 12 day
# B16-F10 [13] = experiment: Induction of cell cycle arrest in mouse B16-F10 cells assessed as accumulation of cells at G2 phase at 2 nM incubated for 12 hrs by flow cytometry (reference value: 13.6 %); format: functional
# [14] = Toxicity in C57 mouse xenografted with mouse B16-F10 cells assessed as PCT level at 7 mg/kg, ip qd for 12 days by biochemical analysis (reference value: 0.425 to 5.300); format: organism-based; conditions: in vivo, 288 h, time 12 day
# [15] = Toxicity in C57 mouse xenografted with mouse B16-F10 cells assessed as lymphocytes level at 3.5 mg/kg, ip qd for 12 days in presence of NP-19 by biochemical analysis (reference value: 7.300 to 65.500 %); format: organism-based; conditions: in vivo, 288 h, time 12 day
# HCT-116 = experiment: Antiproliferative activity against human HCT-116 cells incubated for 48 hrs by MTT assay; format: functional, cell-based; conditions: HCT-116, 48 h
# MCF7 [16] = experiment: Inhibition of cell migration in human MCF7 cells assessed as migration rate at 4 nM incubated for 24 hrs by wound healing assay (reference value: 18.1 %); format: functional; set-up: scale not given: the % may be the effect or the level left
# B16-F10 [17] = experiment: Induction of cell cycle arrest in mouse B16-F10 cells assessed as accumulation of cells at S phase at 2 nM incubated for 12 hrs by flow cytometry (reference value: 30.5 %); format: functional
# [18] = Toxicity in C57 mouse xenografted with mouse B16-F10 cells assessed as basophil count at 3.5 mg/kg, ip qd for 12 days in presence of NP-19 by biochemical analysis (reference value: 0.060 to 25.500 10^9/L); format: organism-based; conditions: in vivo, 288 h, time 12 day
# B16-F10 [19] = experiment: Inhibition of cell migration in mouse B16-F10 cells assessed as migration rate at 1 nM incubated for 24 hrs by wound healing assay (reference value: 61.1 %); format: functional; set-up: scale not given: the % may be the effect or the level left
# MCF7 [20] = experiment: Antiproliferative activity against human MCF7 cells incubated for 48 hrs by MTT assay; format: functional, cell-based; conditions: MCF7, 48 h
# [21] = Toxicity in C57 mouse xenografted with mouse B16-F10 cells assessed as basophil count at 7 mg/kg, ip qd for 12 days by biochemical analysis (reference value: 0.060 to 25.500 10^9/L); format: organism-based; conditions: in vivo, 288 h, time 12 day
# [22] = Toxicity in C57 mouse xenografted with mouse B16-F10 cells assessed as body weight change at 7 mg/kg, ip qd for 12 days; format: organism-based; conditions: in vivo, 288 h, time 12 day
# [23] = Toxicity in C57 mouse xenografted with mouse B16-F10 cells assessed as MCHC level at 3.5 mg/kg, ip qd for 12 days in presence of NP-19 by biochemical analysis (reference value: 324.000 to 683.000 g/L); format: organism-based; conditions: in vivo, 288 h, time 12 day
# [24] = Toxicity in C57 mouse xenografted with mouse B16-F10 cells assessed as PCT level at 3.5 mg/kg, ip qd for 12 days in presence of NP-19 by biochemical analysis (reference value: 0.425 to 5.300); format: organism-based; conditions: in vivo, 288 h, time 12 day
# [25] = Toxicity in C57 mouse xenografted with mouse B16-F10 cells assessed as monocytes count at 3.5 mg/kg, ip qd for 12 days in presence of NP-19 by biochemical analysis (reference value: 0.080 to 0.610 10^9/L); format: organism-based; conditions: in vivo, 288 h, time 12 day
# B16-F10 [26] = experiment: Induction of apoptosis in mouse B16-F10 cells assessed as late apoptotic cells at 1 nM incubated for 12 hrs by Annexin V-FITC/PI staining based flow cytometry (reference value: 2.39 %); format: functional
# [27] = Toxicity in C57 mouse xenografted with mouse B16-F10 cells assessed as WBC count at 3.5 mg/kg, ip qd for 12 days in presence of NP-19 by biochemical analysis (reference value: 8.240 to 8.340 10^9/L); format: organism-based; conditions: in vivo, 288 h, time 12 day
# B16-F10 [28] = experiment: Inhibition of cell migration in mouse B16-F10 cells assessed as migration rate at 2 nM incubated for 24 hrs by wound healing assay (reference value: 61.1 %); format: functional; set-up: scale not given: the % may be the effect or the level left
# B16-F10 [29] = experiment: Induction of cell cycle arrest in mouse B16-F10 cells assessed as accumulation of cells at G1 phase at 1 nM incubated for 12 hrs by flow cytometry (reference value: 52.0 %); format: functional
# [30] = Toxicity in C57 mouse xenografted with mouse B16-F10 cells assessed as MPV level at 7 mg/kg, ip qd for 12 days by biochemical analysis (reference value: 6.200 to 15.000); format: organism-based; conditions: in vivo, 288 h, time 12 day
# [31] = Toxicity in C57 mouse xenografted with mouse B16-F10 cells assessed as neutrophil count at 7 mg/kg, ip qd for 12 days by biochemical analysis (reference value: 2.130 to 5.46 10^9/L); format: organism-based; conditions: in vivo, 288 h, time 12 day
compound,measurement,setting,value
Cc1nc(N(C)c2ccc3c(ccn3C)c2)c2sccc2n1,Activity,B16-F10 [1],4.4%
same,viability at 0.002 µM,B16-F10 [2],75%
same,IC50,HepG2,9.37 nM
same,Activity,B16-F10 [3],Active
same,Activity,B16-F10 [4],7.06%
same,Activity,B16-F10 [5],5.24%
same,viability at 0.001 µM,B16-F10 [6],77.1%
same,inhibition,MCF7 [7],Dose-Dependent Effect
same,Activity,[8],322 g/L
same,Activity,B16-F10 [9],58.9%
same,Activity,MCF7 [10],Active
same,Activity,B16-F10 [11],Active
same,Activity,[12],2.51 10^9/L
same,Activity,B16-F10 [13],72.8%
same,Activity,[14],0.329
same,Activity,[15],2.4%
same,IC50,HCT-116,0.38 nM
same,Activity,MCF7 [16],3.23%
same,Activity,B16-F10 [17],19.3%
same,Activity,[18],0.01 10^9/L
same,Activity,B16-F10 [19],57.5%
same,IC50,MCF7 [20],9.53 nM
same,Activity,[21],0.01 10^9/L
same,Activity,[22],Non-Toxic
same,Activity,[23],343 g/L
same,Activity,[24],0.179
same,Activity,[25],0.06 10^9/L
same,Activity,B16-F10 [26],7.92%
same,Activity,[27],4.22 10^9/L
same,Activity,B16-F10 [28],34.6%
same,Activity,B16-F10 [29],13.8%
same,Activity,[30],6
same,Activity,[31],0.85 10^9/L
